According to patent US20230265151A1, “GIP/GLP1 CO-AGONIST COMPOUNDS” (priority 2020, published 2023):
Where two headings read alike, the source gives them in different places.

Experiments:
hGIPR = target: T1, hGIPR (Homo sapiens, UniProt P48546); assay: Functional cAMP formation (HTRF) in HEK-293 clonal cells expressing hGIPR, 0.1% bovine casein, without or with 1.0% human serum albumin; type: cell-based; settings: for EC50: geometric mean, read-out: hGIPR EC50, nM (SEM, n); for Emax: read-out: hGIPR Emax, % ± SEM
T1 construct: expressed in transfected cells
T1 sequence (P48546 22-466): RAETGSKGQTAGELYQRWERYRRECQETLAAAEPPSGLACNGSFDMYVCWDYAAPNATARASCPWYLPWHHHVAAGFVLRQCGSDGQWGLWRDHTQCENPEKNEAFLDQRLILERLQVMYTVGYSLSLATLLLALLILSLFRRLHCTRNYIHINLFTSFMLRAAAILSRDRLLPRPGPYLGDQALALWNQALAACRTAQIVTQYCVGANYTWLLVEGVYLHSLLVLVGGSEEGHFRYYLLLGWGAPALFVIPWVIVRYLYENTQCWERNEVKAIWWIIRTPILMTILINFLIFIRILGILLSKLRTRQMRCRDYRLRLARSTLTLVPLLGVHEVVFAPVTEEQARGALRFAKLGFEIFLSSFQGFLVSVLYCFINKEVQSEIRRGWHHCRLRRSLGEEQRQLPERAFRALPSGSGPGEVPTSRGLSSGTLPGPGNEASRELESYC
Procedure, shortened: (§1)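 Cells were stimulated with peptide for 30 min at 37° C, then intracellular cAMP was measured by competitive HTRF (665/620 nm ratio) and converted to nM using a cAMP standard curve. Relative EC50 and Emax came from four-parameter logistic fits of percent maximal response against peptide concentration.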

hGCGR = target: T2, hGCGR (Homo sapiens, UniProt P47871); assay: Functional cAMP formation (HTRF) in HEK-293 clonal cells expressing hGCGR, 0.1% bovine casein, without or with 1.0% human serum albumin; type: cell-based; settings: geometric mean, read-out: hGCGR EC50, nM (SEM, n)
T2 construct: expressed in transfected cells
T2 sequence (P47871 26-477): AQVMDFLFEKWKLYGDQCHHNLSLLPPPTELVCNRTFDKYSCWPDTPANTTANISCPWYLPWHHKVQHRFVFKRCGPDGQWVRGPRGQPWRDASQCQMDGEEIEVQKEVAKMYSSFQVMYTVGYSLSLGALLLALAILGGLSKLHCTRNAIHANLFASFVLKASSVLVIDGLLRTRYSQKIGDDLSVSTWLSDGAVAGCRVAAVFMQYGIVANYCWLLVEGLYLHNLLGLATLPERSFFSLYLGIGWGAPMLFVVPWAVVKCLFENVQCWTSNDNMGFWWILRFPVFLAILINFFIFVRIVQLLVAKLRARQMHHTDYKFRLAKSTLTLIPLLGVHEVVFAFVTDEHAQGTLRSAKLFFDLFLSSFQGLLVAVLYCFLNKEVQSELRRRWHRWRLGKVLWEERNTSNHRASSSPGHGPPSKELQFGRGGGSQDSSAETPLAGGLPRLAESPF
Procedure, shortened: as §1

hGLP-1R = hGLP-1R (Homo sapiens, UniProt P43220); assay: Functional cAMP formation (HTRF) in HEK-293 clonal cells expressing hGLP-1R, 0.1% bovine casein, without or with 1.0% human serum albumin; type: cell-based; set-up: expressed in transfected cells; settings: for EC50: geometric mean, read-out: hGLP-1R EC50, nM (SEM, n); for Emax: read-out: hGLP-1R Emax, % ± SEM
Chain of hGLP-1R (P43220 24-463): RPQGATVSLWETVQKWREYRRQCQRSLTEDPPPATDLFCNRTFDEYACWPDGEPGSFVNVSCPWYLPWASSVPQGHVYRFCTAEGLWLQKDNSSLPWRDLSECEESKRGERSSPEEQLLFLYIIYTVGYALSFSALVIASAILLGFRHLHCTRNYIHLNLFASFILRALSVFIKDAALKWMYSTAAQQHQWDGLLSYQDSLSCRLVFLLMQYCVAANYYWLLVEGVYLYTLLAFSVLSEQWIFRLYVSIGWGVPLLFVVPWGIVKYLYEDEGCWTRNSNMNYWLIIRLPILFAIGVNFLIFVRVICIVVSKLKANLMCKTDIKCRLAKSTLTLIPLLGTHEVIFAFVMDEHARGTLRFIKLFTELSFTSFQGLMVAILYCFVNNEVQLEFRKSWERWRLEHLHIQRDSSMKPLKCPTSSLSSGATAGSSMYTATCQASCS
Procedure, shortened: as §1

[1] = target: T3, human GIP receptor (hGIPR) (Homo sapiens, UniProt P48546); assay: [125I]-GIP binding, SPA with membranes of CHO cells expressing hGIPR; settings: human GIPR; geometric mean (SEM, n); read-out: Binding Affinity Ki, nM (SEM, n) hGIPR
T3 construct: expressed in transfected cells; crude membranes
T3 sequence (P48546 22-466): T1 sequence (P48546 22-466)
Description: Two methods are used for the preparation of crude cell membranes.
Method 1: Frozen cell pellets are lysed on ice in hypotonic buffer containing 50 mM Tris HCl, pH 7.5, and Roche Complete™ Protease Inhibitors with EDTA. […] The homogenate is centrifuged at 4° C. at 1100 × g for 10 minutes. The supernatant is collected and stored on ice while the pellets are resuspended in homogenization buffer and rehomogenized as described above. The homogenate is centrifuged at 1100 × g for 10 minutes. The second supernatant is combined with the first supernatant and centrifuged at 35000 × g for 1 hour at 4° C. The resulting membrane pellet is resuspended in homogenization buffer containing protease inhibitors at approximately 1 to 3 mg/mL, quick frozen in liquid nitrogen and stored as aliquots in a -80° C. freezer until use.
The homogenate is centrifuged at 4° C. at 1800 × g for 15 minutes. The supernatant is collected and stored on ice while the pellets are resuspended in homogenization buffer (without DNAse I) and rehomogenized as described above. The homogenate is centrifuged at 1800 × g for 15 minutes. The second supernatant is combined with the first supernatant and centrifuged an additional time at 1800 × g for 15 minutes. The overall supernatant is then centrifuged at 25000 × g for 30 minutes at 4° C. The resulting membrane pellet is resuspended in homogenization buffer (without DNAse I) containing protease inhibitors at approximately 1 to 3 mg/mL and stored as aliquots in a -80° C. freezer until use.
The binding buffer contains 25 mM HEPES, pH 7.4, 2.5 mM CaCl2, 1 mM MgCl2, 0.1% (w/v) bacitracin, 0.003% (w/v) TWEEN®-20, and Roche Complete™ Protease Inhibitors without EDTA. Peptides and GIP are thawed and 3 fold serially diluted in 100% DMSO (10 point concentration response curves). […] Plates are sealed and mixed on a plate shaker (setting 6) for 1 minute and read with a PerkinElmer Trilux MicroBeta® scintillation counter after 2.5 to 12 hours of incubation/settling time at room temperature.
Raw CPM data for concentration curves of peptides, Gcg, GLP-1, or GIP are converted to percent inhibition by subtracting nonspecific binding (binding in the presence of excess unlabeled Gcg, GLP-1, or GIP, respectively) from the individual CPM values and dividing by the total binding signal, also corrected by subtracting nonspecific binding. Data are analyzed using four-parameter (curve maximum, curve minimum, IC50, Hill slope) nonlinear regression routines (Genedata Screener, version 12.0.4, Genedata AG, Basal, Switzerland). […] Values for Ki are reported as the geometric mean, with error expressed as the standard error of the mean (SEM) and n is equal to the number of independent replicates (determined in assays performed on different days). Geometric Means are calculated as follows: […]
The Ki Ratio (Ki for native control peptide/Ki for test compound) at each receptor and each species is calculated. The Ki Ratio is a rapid indication of the apparent affinity of a peptide compared to the native control peptide.
n=⅟x means that only one value out of the total number of replicates (x) is used to express the mean. SEM is only calculated when n=2 or greater non-qualified results exist. Means are expressed as GeoMetric means with the standard error of the mean (SEM) and the number of replicates (n) indicated in parenthesis.

[2] = 0.1% bovine casein and 1.0% human serum albumin, 37° C.
[3] = cAMP, incubated at 37° C., 0.1% bovine casein (no human serum albumin)
[4] = HEK293, 0.1% bovine casein and 1.0% human serum albumin, 37° C., percent of maximal response to GIP(1-42)NH2
[5] = HEK293, percent of maximal response to GIP(1-42)NH2, 37° C., 0.1% bovine casein, arithmetic mean

SMILES | EC50 (hGIPR; [2]) [nM] | EC50 (hGIPR; [3]) [nM] | EC50 (hGCGR; [2]) [nM] | EC50 (hGCGR; [3]) [nM] | EC50 (hGLP-1R; [2]) [nM] | EC50 (hGLP-1R; [3]) [nM] | Ki [1] [nM] | Emax (hGIPR; [4]) [%] | Emax (hGIPR; [5]) [%] | Emax (hGLP-1R; HEK293, 0.1% bovine casein and 1.0% human serum albumin, 37° C., percent of maximal response to GLP-1(7-36)NH2) [%] | Emax (hGLP-1R; HEK293, percent of maximal response to GLP-1(7-36)NH2, 37° C., 0.1% bovine casein, arithmetic mean) [%]
CC[C@H](C)[C@H](NC(=O)[C@H](CC(C)C)NC(=O)[C@](C)(Cc1ccc(O)cc1)NC(=O)[C@@H](CCC(=O)O)NC(=O)[C@@H](NC(=O)[C@H](Cc1ccccc1)NC(=O)[C@H](CCC(=O)O)NC(=O)C(C)(C)NC(=O)[C@H](CCC(N)=O)NC(=O)[C@H](C)NC(=O)[C@H](CCCCNC(=O)[C@@H](N)CCCCNC(=O)[C@@H](N)CCCCNC(=O)CC[C@H](NC(=O)CCCCCCCCCCCCC(=O)O)C(=O)O)NC(=O)[C@H](CCCN)NC(=O)[C@H](CC(=O)O)NC(=O)[C@H](CC(C)C)NC(=O)[C@](C)(CC(C)C)NC(=O)[C@@H](NC(=O)[C@H](CO)NC(=O)[C@H](Cc1ccncc1)NC(=O)[C@H](CC(=O)O)NC(=O)[C@H](CO)NC(=O)[C@@H](NC(=O)[C@](C)(Cc1ccccc1F)NC(=O)[C@@H](NC(=O)CNC(=O)[C@H](CCC(=O)O)NC(=O)C(C)(C)NC(=O)[C@@H](N)Cc1ccc(O)cc1)[C@@H](C)O)[C@@H](C)O)[C@@H](C)CC)[C@@H](C)CC)C(=O)N[C@@H](CCC(=O)O)C(=O)NCC(=O)NCC(=O)N[C@@H](CCCCNC(=O)[C@@H](N)CCCCNC(=O)[C@@H](N)CCCCNC(=O)CC[C@H](NC(=O)CCCCCCCCCCCCC(=O)O)C(=O)O)C(=O)N[C@@H](CO)C(=O)N[C@@H](CO)C(=O)NCC(=O)N[C@@H](C)C(=O)N1CCC[C@H]1C(=O)N1CCC[C@H]1C(=O)N1CCC[C@H]1C(=O)N[C@@H](CO)C(N)=O [Example 40] | 0.301 | 0.0116 | > 9950 | > 9950 | 6.69 | 0.279 | 0.163 | – | – | – | –
CC[C@H](C)[C@H](NC(=O)[C@H](CC(C)C)NC(=O)[C@](C)(Cc1ccc(O)cc1)NC(=O)[C@@H](CCC(=O)O)NC(=O)[C@@H](NC(=O)[C@H](Cc1ccccc1)NC(=O)[C@H](CCC(=O)O)NC(=O)C(C)(C)NC(=O)[C@H](CCC(N)=O)NC(=O)[C@H](C)NC(=O)[C@H](CCCCNC(=O)COCCOCCNC(=O)COCCOCCNC(=O)CC[C@H](NC(=O)CCCCCCCCCCCCC(=O)O)C(=O)O)NC(=O)[C@H](CCCN)NC(=O)[C@H](CC(=O)O)NC(=O)[C@H](CC(C)C)NC(=O)[C@](C)(CC(C)C)NC(=O)[C@@H](NC(=O)[C@H](CO)NC(=O)[C@H](CCc1ccc(O)cc1)NC(=O)[C@H](CC(=O)O)NC(=O)[C@H](CO)NC(=O)[C@@H](NC(=O)[C@](C)(Cc1ccccc1F)NC(=O)[C@@H](NC(=O)CNC(=O)[C@H](CCC(=O)O)NC(=O)C(C)(C)NC(=O)[C@@H](N)Cc1ccc(O)cc1)[C@@H](C)O)[C@@H](C)O)[C@@H](C)CC)[C@@H](C)CC)C(=O)N[C@@H](CCC(=O)O)C(=O)NCC(=O)NCC(=O)N[C@@H](CCCCNC(=O)COCCOCCNC(=O)COCCOCCNC(=O)CC[C@H](NC(=O)CCCCCCCCCCCCC(=O)O)C(=O)O)C(=O)N[C@@H](CO)C(=O)N[C@@H](CO)C(=O)NCC(=O)N[C@@H](C)C(=O)N1CCC[C@H]1C(=O)N1CCC[C@H]1C(=O)N1CCC[C@H]1C(=O)N[C@@H](CO)C(N)=O [Example 59] | – | 0.024 | > 9950 | > 9950 | – | 0.202 | 0.171 | 90.3 ± 3.64 | 89.2 ± 4.62 | – | –
CCCC[C@H](NC(=O)[C@H](CC(=O)O)NC(=O)[C@H](CO)NC(=O)[C@@H](NC(=O)[C@](C)(Cc1ccccc1F)NC(=O)[C@@H](NC(=O)CNC(=O)[C@H](CCC(=O)O)NC(=O)C(C)(C)NC(=O)[C@@H](N)Cc1ccc(O)cc1)[C@@H](C)O)[C@@H](C)O)C(=O)N[C@@H](CO)C(=O)N[C@H](C(=O)N[C@@](C)(CC(C)C)C(=O)N[C@@H](CC(C)C)C(=O)N[C@@H](CC(=O)O)C(=O)N[C@@H](CCCN)C(=O)N[C@@H](CCCCNC(=O)COCCOCCNC(=O)COCCOCCNC(=O)CC[C@H](NC(=O)CCCCCCCCCCCCC(=O)O)C(=O)O)C(=O)N[C@@H](C)C(=O)N[C@@H](CCC(N)=O)C(=O)NC(C)(C)C(=O)N[C@@H](CCC(=O)O)C(=O)N[C@@H](Cc1ccccc1)C(=O)N[C@H](C(=O)N[C@H](CCC(=O)O)C(=O)N[C@@](C)(Cc1ccc(O)cc1)C(=O)N[C@@H](CC(C)C)C(=O)N[C@H](C(=O)N[C@@H](CCC(=O)O)C(=O)NCC(=O)NCC(=O)N[C@@H](CCCCNC(=O)COCCOCCNC(=O)COCCOCCNC(=O)CC[C@H](NC(=O)CCCCCCCCCCCCC(=O)O)C(=O)O)C(=O)N[C@@H](CO)C(=O)N[C@@H](CO)C(=O)NCC(=O)N[C@@H](C)C(=O)N1CCC[C@H]1C(=O)N1CCC[C@H]1C(=O)N1CCC[C@H]1C(=O)N[C@@H](CO)C(N)=O)[C@@H](C)CC)[C@@H](C)CC)[C@@H](C)CC [Example 60] | 1.2 | – | > 9950 | > 9950 | – | 0.19 | 0.11 | 89.4 ± 4.57 | 94 ± 6.07 | 111 ± 3.97 | 97.2 ± 4.28
